As a reminder, the EC50 is the midpoint of the concentration-response curve. A word on the IC50: it is the concentration at which inhibition is half-maximal. Higher therefore signals weaker potency.

The source of these data is publication PMC4922860, “Atypical calcium regulation of the PKD2-L1 polycystin ion channel” (eLife, 2016).

SMILES strings stand for the structures. Changes are numbered by the printed parent chain.

Common to all, as to type: cell-based
Experiment [1] deals with T1, human PKD2-L1, homomeric channel (Homo sapiens, UniProt Q9P0L9, D523N).
T1 construct: gene PKD2L1; full-length isoform 1 in pTracer CMV2, transiently transfected HEK 293T cells; homotetramer; whole-cell patch clamp
T1 sequence (Q9P0L9 1-805 D523N): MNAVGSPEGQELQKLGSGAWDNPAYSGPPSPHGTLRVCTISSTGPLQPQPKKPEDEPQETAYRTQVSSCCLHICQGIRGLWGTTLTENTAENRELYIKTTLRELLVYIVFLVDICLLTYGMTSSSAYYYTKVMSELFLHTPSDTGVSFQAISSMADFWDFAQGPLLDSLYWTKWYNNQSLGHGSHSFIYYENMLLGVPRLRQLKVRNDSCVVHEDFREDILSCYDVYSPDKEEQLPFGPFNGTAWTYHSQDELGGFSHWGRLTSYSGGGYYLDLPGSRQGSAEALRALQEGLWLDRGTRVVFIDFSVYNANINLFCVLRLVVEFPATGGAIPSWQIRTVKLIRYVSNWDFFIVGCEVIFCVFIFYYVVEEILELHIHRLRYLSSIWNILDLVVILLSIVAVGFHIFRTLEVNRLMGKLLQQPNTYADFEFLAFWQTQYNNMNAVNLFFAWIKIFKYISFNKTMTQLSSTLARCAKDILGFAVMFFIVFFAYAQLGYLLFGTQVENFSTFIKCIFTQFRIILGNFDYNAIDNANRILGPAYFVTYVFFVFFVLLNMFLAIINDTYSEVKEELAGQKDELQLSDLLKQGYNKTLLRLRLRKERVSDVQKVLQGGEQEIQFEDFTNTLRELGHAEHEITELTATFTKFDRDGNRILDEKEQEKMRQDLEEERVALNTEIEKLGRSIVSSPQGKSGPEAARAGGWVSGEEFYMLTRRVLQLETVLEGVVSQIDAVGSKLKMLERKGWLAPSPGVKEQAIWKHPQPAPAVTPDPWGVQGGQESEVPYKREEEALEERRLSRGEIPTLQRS
Kind of experiment: whole-cell patch clamp, current potentiation, voltage ramps. A general note: In patch-clamp work, channel activity is measured electrically.

Experiment [2] deals with T2, human PKD2-L1 (Wt), homomeric channel (Homo sapiens, UniProt Q9P0L9).
T2 construct: gene PKD2L1; full-length isoform 1 in pTracer CMV2, transiently transfected HEK 293T cells; homotetramer; whole-cell patch clamp
T2 sequence (Q9P0L9 1-805): T1 sequence (Q9P0L9 1-805 D523N) with N523D
Described as above.

Experiment [3] has as its target T2, human PKD2-L1 (Wt), homomeric channel. Put plainly: whole-cell patch clamp, current block, voltage ramps, Hill fit.
In experiment [4] the target is T1, human PKD2-L1, homomeric channel. Described as above.

As for `Clc1ccc(C(c2ccc(Cl)cc2)n2cc[n+](CC(OCc3ccc(Cl)cc3Cl)c3ccc(Cl)cc3Cl)c2)cc1` (stereo not shown) [calmidazolium], the EC50 in experiment [1] stood at 9 ± 7 µM; in experiment [2], 2.6 ± 6 µM.
Consider `CCCCOc1cc(C(=O)NCCN(CC)CC)c2ccccc2n1` [dibucaine], for which the IC50 in experiment [3] amounted to 31 ± 5 µM; in experiment [4], 23 ± 3 µM.
